Measured values from patent EP2386565A2, “Compounds and methods to inhibit or augment an inflammatory response” (Cambridge Enterprise Ltd., priority 1999, dated 2000).
Positions of bridges follow the written chain, without caps; N, C: chain ends. Non-standard residues stand in square brackets, D forms with d. Residues, ends and D or L forms follow the SMILES beside them.

Assays:
[1] = tested on: IL8 induced THP-1 migration; assay: THP-1 trans-well migration assay, IL8 as chemoattractant; assay type: cell-based, human
Procedure: To determine whether an agent inhibits a chemokine-induced activity, such as macrophage recruitment, varying amounts of the agent are mixed with cells in the presence of a known chemoattractant. For example, a range of known concentrations of an agent, e.g., a chemokine peptide, is incubated with a defined number (e.g., 10^4 - […]) of human THP-1 monocyte cells in individual wells of the top compartment of a trans-well plate. Chemokine (such as MCP-1, MIP1α, IL8 or SDF-1α), at a concentration known to cause significant migration of THP-1 cells in the trans-well migration assay, is placed in the lower compartment (Figure 1). […] A standard curve consisting of a two-fold dilution series of THP-1 cells (in 29 µl) is prepared to accurately quantify the number of cells that have migrated. […] Absorbance of converted dye is measured at a wavelength of 595 nm using an ELISA plate reader. The number of migrated cells in each well is then determined by interpolation of the standard curve (see also Imai et al.,J. Biol. Chem., 272, 15036 (1997)). […]
After incubation, the cells were gently removed from the top of the filter with a pipette, 20 µl of 20 mM EDTA in PBS was added into each top well, and the mixture was incubated for 20 minutes at 4°C. […] A standard curve was prepared to accurately quantify the number of THP-1 cells that had migrated. […]

[2] = Acute and 7-day repeat dose toxicity study; assay type: in vivo, rat
Source text: That is, all animals remained clinically normal throughout.

Compound	% inhibition at 100 µM versus IL8 ([1]; THP-1 migration, agent at 100 µM, n.s. or dash = no statistically significant inhibition)	ED50 (µM) versus IL8 ([1]; inhibition of THP-1 migration, n.s. = not statistically significant)	acute toxicity (in words) ([2]; 1 or 10 mg (5-50 mg/kg) i.v.)	7-day repeat dose toxicity (in words) ([2]; subcutaneous osmotic mini-pump, about 43 µg/hr for 7 days (7.2 mg))
CC[C@H](C)[C@H](NC(=O)[C@H](C)NC(=O)[C@H](CC(=O)O)NC(=O)[C@@H]1CCCN1C(=O)[C@H](CCC(N)=O)NC(=O)[C@H](C)N)C(=O)N[C@@H](CC(N)=O)C(=O)N[C@@H](C)C(=O)N1CCC[C@H]1C(=O)N[C@H](C(=O)N[C@H](C(=O)N[C@@H](CS)C(=O)N[C@@H](CS)C(=O)O)[C@@H](C)O)C(C)C [Peptide 1] (H-AQPDAINAPVTCC-OH; N-terminus and C-terminus assumed)	n.s.	n.s.	–	–
CC[C@@H](C)[C@H]1NC(=O)[C@@H](CCC(N)=O)NC(=O)[C@H](N)CSSC[C@H](C(N)=O)NC(=O)[C@@H](CC(C)C)NC(=O)[C@@H](CC(=O)O)NC(=O)[C@H]2CCCN2C(=O)[C@@H](CCCCN)NC(=O)[C@@H](CCC(N)=O)NC(=O)[C@@H](CCCCN)NC(=O)[C@@H](Cc2c[nH]c3ccccc23)NC1=O (H-[dC][dQ][dI][dW][dK][dQ][dK][dP][dD][dL][dC]-NH2; disulfide 1-11)	–	–	no clinically detectable changes	no dose dependent or clinically significant changes
